Side chains are listed from the residue outwards. Peptide text beside a SMILES is read from it. * marks the point of attachment. Palmitoyl = CCCCCCCCCCCCCCCC(=O)*; Lauroyl = CCCCCCCCCCCC(=O)*; Octanoyl = CCCCCCCC(=O)*; βAla = NCCC(=O)O
Test system: Caco-2 cells
Test: Translocation across Caco-2 cell monolayers
Assay type: in vitro ADME, human
Conditions: for Caco-2 translocation relative to native GLP-2 (in words): Caco-2 monolayers
Method: Caco-2 cells (passage 40–65) were cultured routinely in DMEM with 10% (v/v) FBS, 1% (v/v) nonessential amino acids, 100 U penicillin, 0.1 mg/mL streptomycin and 2 mM L-glutamine. The Caco-2 cells were seeded at a density of [drawing 60] cells/well on 12 well Transwells plates and grown for 14–16 days in DMEM with media change every second day. The cell layer was confirmed to consist of a single monolayer of cells by fixing and staining the cell layer, and visualizing by fluorescence microscopy.
Before transport experiments, DMEM medium was changed to HBSS buffer (containing 10 mM HEPES and 0.1% (w/v) OVA; 0.4 mL apical side and 1 mL basolateral) and left to equilibrate for 60 minutes. Buffer was replaced apically by 0.4 mL test solution at time zero, and the plates were incubated at [drawing 61] and 5% [drawing 62] with gentle shaking. Test solutions contained 100 [drawing 63] peptide and 0.8 [drawing 64] [ [drawing 65] ]mannitol (a permeability marker). Basolateral samples of 200 [drawing 66] were taken every 15 minutes for 1 hour, and replaced by buffer. The apical test solution and basolateral samples were diluted and analyzed for peptide content with the luciferase assay and for [ [drawing 67] ]mannitol content in a scintillation counter (Packard TopCount), after mixing 1∶1 with scintillation fluid.
The integrity of cell monolayers before, during, and after experiments was verified by measuring the translocation of radioactively labelled mannitol and the transepithelial electrical resistance (TEER), using a Milicell ERS-2 epithelial volt-ohm meter (Millipore, USA). Mannitol translocation and TEER values were not affected by addition of peptide or analogues compared to buffer.
The Caco-2 translocation of peptide or mannitol over Caco-2 layers is expressed as the apparent permeability ( [drawing 72] ), given by: [drawing 73] (6) where [drawing 74] is the steady-state flux of peptide (pmol/s), [drawing 75] is the surface area of the cell monolayer (1.12 [drawing 76] ), and [drawing 77] is the initial sample concentration added to the cell layer.

[1] = apical to basolateral, 1 hour, no enhancer, 3 separate experiments each with 4 repeats

| Compound | Caco-2 translocation relative to native GLP-2 (in words) [1] | Caco-2 translocation with absorption enhancer, times the native peptide (Caco-2, apical to basolateral, in the presence of EGTA (paracellular) or SDS (transcellular), 2 separate experiments each with 4 repeats) | increase in Caco-2 translocation compared to native GLP-2 (factor) (Caco-2 monolayers 14-16 days, apical to basolateral, 100 (unit is a drawing) peptide, HBSS with 10 mM HEPES and 0.1% OVA, 1 hour, luciferase assay read-out, no enhancer, 3 separate experiments each with 4 repeats) | Caco-2 translocation in the presence of SDS (in words) (Caco-2, apical to basolateral, SDS) | increase in peptide permeability with SDS compared to peptide alone (Caco-2, apical to basolateral, SDS (transcellular enhancer), 2 separate experiments each with 4 repeats) |
| --- | --- | --- | --- | --- | --- |
| CCCCCCCC(=O)NCCC(=O)NCCCC[C@H](NC(=O)[C@H](CC(N)=O)NC(=O)[C@H](CC(=O)O)NC(=O)[C@H](CC(C)C)NC(=O)[C@@H](NC(=O)[C@@H](NC(=O)[C@H](CC(N)=O)NC(=O)[C@H](CCSC)NC(=O)[C@H](CCC(=O)O)NC(=O)[C@H](CC(=O)O)NC(=O)[C@H](CO)NC(=O)[C@H](Cc1ccccc1)NC(=O)[C@H](CO)NC(=O)CNC(=O)[C@H](CCC(=O)O)NC(=O)[C@H](C)NC(=O)[C@@H](N)Cc1c[nH]cn1)[C@@H](C)O)[C@@H](C)CC)C(=O)N[C@@H](C)C(=O)N[C@@H](C)C(=O)N[C@@H](CCCNC(=N)N)C(=O)N[C@@H](CC(=O)O)C(=O)N[C@@H](Cc1ccccc1)C(=O)N[C@H](C(=O)N[C@@H](CC(N)=O)C(=O)N[C@@H](Cc1c[nH]c2ccccc12)C(=O)N[C@@H](CC(C)C)C(=O)N[C@H](C(=O)N[C@@H](CCC(N)=O)C(=O)N[C@H](C(=O)N[C@@H](CCCNC(=N)N)C(=O)N[C@H](C(=O)N[C@H](C(=O)N[C@@H](CC(=O)O)C(=O)O)[C@@H](C)O)[C@@H](C)CC)[C@@H](C)O)[C@@H](C)CC)[C@@H](C)CC [c8] (H-HAEGSFSDEMNTILDNK([βAla-Octanoyl])AARDFINWLIQTRITD-OH) | increase the translocation relative to native GLP-2 |  |  |  |  |
| CCCCCCCCCCCC(=O)NCCC(=O)NCCCC[C@H](NC(=O)[C@H](CC(N)=O)NC(=O)[C@H](CC(=O)O)NC(=O)[C@H](CC(C)C)NC(=O)[C@@H](NC(=O)[C@@H](NC(=O)[C@H](CC(N)=O)NC(=O)[C@H](CCSC)NC(=O)[C@H](CCC(=O)O)NC(=O)[C@H](CC(=O)O)NC(=O)[C@H](CO)NC(=O)[C@H](Cc1ccccc1)NC(=O)[C@H](CO)NC(=O)CNC(=O)[C@H](CCC(=O)O)NC(=O)[C@H](C)NC(=O)[C@@H](N)Cc1c[nH]cn1)[C@@H](C)O)[C@@H](C)CC)C(=O)N[C@@H](C)C(=O)N[C@@H](C)C(=O)N[C@@H](CCCNC(=N)N)C(=O)N[C@@H](CC(=O)O)C(=O)N[C@@H](Cc1ccccc1)C(=O)N[C@H](C(=O)N[C@@H](CC(N)=O)C(=O)N[C@@H](Cc1c[nH]c2ccccc12)C(=O)N[C@@H](CC(C)C)C(=O)N[C@H](C(=O)N[C@@H](CCC(N)=O)C(=O)N[C@H](C(=O)N[C@@H](CCCNC(=N)N)C(=O)N[C@H](C(=O)N[C@H](C(=O)N[C@@H](CC(=O)O)C(=O)O)[C@@H](C)O)[C@@H](C)CC)[C@@H](C)O)[C@@H](C)CC)[C@@H](C)CC [c12] (H-HAEGSFSDEMNTILDNK([βAla-Lauroyl])AARDFINWLIQTRITD-OH) | increase the translocation relative to native GLP-2 | approximately 1.5 | ~1.5 |  |  |
| CCCCCCCCCCCCCCCC(=O)NCCC(=O)NCCCC[C@H](NC(=O)[C@H](CC(N)=O)NC(=O)[C@H](CC(=O)O)NC(=O)[C@H](CC(C)C)NC(=O)[C@@H](NC(=O)[C@@H](NC(=O)[C@H](CC(N)=O)NC(=O)[C@H](CCSC)NC(=O)[C@H](CCC(=O)O)NC(=O)[C@H](CC(=O)O)NC(=O)[C@H](CO)NC(=O)[C@H](Cc1ccccc1)NC(=O)[C@H](CO)NC(=O)CNC(=O)[C@H](CCC(=O)O)NC(=O)[C@H](C)NC(=O)[C@@H](N)Cc1c[nH]cn1)[C@@H](C)O)[C@@H](C)CC)C(=O)N[C@@H](C)C(=O)N[C@@H](C)C(=O)N[C@@H](CCCNC(=N)N)C(=O)N[C@@H](CC(=O)O)C(=O)N[C@@H](Cc1ccccc1)C(=O)N[C@H](C(=O)N[C@@H](CC(N)=O)C(=O)N[C@@H](Cc1c[nH]c2ccccc12)C(=O)N[C@@H](CC(C)C)C(=O)N[C@H](C(=O)N[C@@H](CCC(N)=O)C(=O)N[C@H](C(=O)N[C@@H](CCCNC(=N)N)C(=O)N[C@H](C(=O)N[C@H](C(=O)N[C@@H](CC(=O)O)C(=O)O)[C@@H](C)O)[C@@H](C)CC)[C@@H](C)O)[C@@H](C)CC)[C@@H](C)CC [c16] (H-HAEGSFSDEMNTILDNK([βAla-Palmitoyl])AARDFINWLIQTRITD-OH) | decreases it slightly |  |  | remains lower than for the c12 peptide | the increase is greater |
